Assays:
Test in all cases: Ba/F3 drug screening, Cell Titer Glo, IC50 Mut/WT
Assay type in all cases: cell-based
EGFR G724S = molecular target: T1, EGFR G724S (Homo sapiens, UniProt P00533, G724S)
T1 construct: expressed in transfected cells; host or cells: Ba/F3
Procedure: (§1) Data represent the ratio of the IC50 value for a given TKI for cells with a PACC EGFR mutation to the IC50 value for cells with wildtype EGFR.
(§2) Ba/F3 cell generation, drug screening, and IC50 approximations. Ba/F3 cells were obtained as a gift from Dr. Gordon Mills (MD Anderson Cancer Center), and maintained in RPMI (Sigma) containing 10% FBS, 1% penicillin/streptomycin, and 10 ng/ml recombinant mIL-3 (R&D Biosystems). To establish stable Ba/F3 cell lines, Ba/F3 cells were transduced with retroviruses containing mutant EGFR plasmids for 12-24 hours.
(§3) After 48-72 hours of transduction, 2 μg/ml puromycin (Invitrogen) was added to Ba/F3 cell lines in complete RPMI. To select for EGFR positive cell lines, cells were stained with PE-EGFR (Biolegend) and sorted by FACS. After sorting, EGFR positive cells were maintained in RPMI containing 10% FBS, 1% penicillin/streptomycin, and 1 ng/ml EGF to support cell viability. Drug screening was performed as previously described^41,42. Shortly, cells were plated in 384-well plates (Greiner Bio-One) at 2000-3000 cells per well in technical triplicate. Seven different concentrations of TKIs or DMSO vehicle were added to reach a final volume of 40 μL per well. After 72 hours, 11 μL of Cell Titer Glo (Promega) was added to each well. Plates were incubated for a minimum of 10 minutes, and bioluminescence was determined using a FLUOstar OPTIMA plate reader (BMG LABTECH). Raw bioluminescence values were normalized to DMSO control treated cells, and values were plotted in GraphPad Prism. […] Drug screens were performed in technical triplicate on each plate and either duplicate or triplicate biological replicates.

EGFR N771dupN = molecular target: T2, EGFR N771dupN (Homo sapiens, UniProt P00533, DUP771-771); conditions: Ex20, 72 hours
T2 construct: expressed in transfected cells; host or cells: Ba/F3 cells, retroviral pBabe-Puro vector
Procedure: (§4) Data represent the ratio of the IC50 value for a given TKI for cells with an ex20ins EGFR mutation to the IC50 value for cells with wildtype EGFR.
as §2
(§5) After 48-72 hours of transduction, 2 μg/ml puromycin (Invitrogen) was added to Ba/F3 cell lines in complete RPMI. To select for EGFR positive cell lines, cells were stained with PE-EGFR (Biolegend) and sorted by FACS. After sorting, EGFR positive cells were maintained in RPMI containing 10% FBS, 1% penicillin/streptomycin, and 1 ng/ml EGF to support cell viability. Drug screening was performed as previously described^41,42. Shortly, cells were plated in 384-well plates (Greiner Bio-One) at 2000-3000 cells per well in technical triplicate. Seven different concentrations of TKIs or DMSO vehicle were added to reach a final volume of 40 μL per well. After 72 hours, 11 μL of Cell Titer Glo (Promega) was added to each well. Plates were incubated for a minimum of 10 minutes, and bioluminescence was determined using a FLUOstar OPTIMA plate reader (BMG LABTECH). Raw bioluminescence values were normalized to DMSO control treated cells, and values were plotted in GraphPad Prism. […] Drug screens were performed in technical triplicate on each plate and either duplicate or triplicate biological replicates. […] Statistical differences between groups were determined by ANOVA as described in the figure legends.

EGFR K754E = molecular target: T3, EGFR K754E (Homo sapiens, UniProt P00533, K754E); conditions: Classical-Like, 72 hours
T3 construct: expressed in transfected cells; host or cells: Ba/F3 cells, retroviral pBabe-Puro vector
Procedure: (§6) Data represent the ratio of the IC50 value for a given TKI for cells with a classical-like EGFR mutation to the IC50 value for cells with wildtype EGFR.
as §2
(§7) After 48-72 hours of transduction, 2 μg/ml puromycin (Invitrogen) was added to Ba/F3 cell lines in complete RPMI. To select for EGFR positive cell lines, cells were stained with PE-EGFR (Biolegend) and sorted by FACS. After sorting, EGFR positive cells were maintained in RPMI containing 10% FBS, 1% penicillin/streptomycin, and 1 ng/ml EGF to support cell viability. […] Shortly, cells were plated in 384-well plates (Greiner Bio-One) at 2000-3000 cells per well in technical triplicate. Seven different concentrations of TKIs or DMSO vehicle were added to reach a final volume of 40 μL per well. After 72 hours, 11 μL of Cell Titer Glo (Promega) was added to each well. Plates were incubated for a minimum of 10 minutes, and bioluminescence was determined using a FLUOstar OPTIMA plate reader (BMG LABTECH). Raw bioluminescence values were normalized to DMSO control treated cells, and values were plotted in GraphPad Prism. […] Drug screens were performed in technical triplicate on each plate and either duplicate or triplicate biological replicates.

[1] = molecular target: T4, EGFR L747_K754del insATSPE (Homo sapiens, UniProt P00533, DEL747-749/K754E); conditions: T790M-like-3S, 72 hours
T4 construct: expressed in transfected cells; host or cells: Ba/F3 cells, retroviral pBabe-Puro vector
Procedure: (§8) Data represent the ratio of the IC50 value for a given TKI for cells with a T790M-like-3S EGFR mutation to the IC50 value for cells with wildtype EGFR.
as §2, §3

EGFR S768I/T790M = molecular target: T5, EGFR S768I/T790M (Homo sapiens, UniProt P00533, S768I/T790M); conditions: T790M-like-3S, 72 hours
T5 construct: expressed in transfected cells; host or cells: Ba/F3
Procedure: as §8, §2, §3

EGFR D770insNPG = molecular target: T6, EGFR D770insNPG (Homo sapiens, UniProt P00533, INS770NPG); conditions: Ex20, 72 hours
T6 construct: expressed in transfected cells; host or cells: Ba/F3 cells, retroviral pBabe-Puro vector
Procedure: as §4, §2, §5

EGFR Ex19del/C797S = molecular target: T7, EGFR Ex19del/C797S (Homo sapiens, UniProt P00533, C797S/DEL746-750)
T7 construct: expressed in transfected cells; host or cells: Ba/F3

EGFR L858R T790M L792H = molecular target: T8, EGFR L858R T790M L792H (Homo sapiens, UniProt P00533, L792H/L858R/T790M); conditions: T790M-like-3S, 72 hours
T8 construct: expressed in transfected cells; host or cells: Ba/F3

EGFR L858R/V834L = molecular target: T9, EGFR L858R/V834L (Homo sapiens, UniProt P00533, L858R/V834L); conditions: Classical-Like, 72 hours
T9 construct: expressed in transfected cells; host or cells: Ba/F3 cells, retroviral pBabe-Puro vector
Procedure: as §6, §2, §7

EGFR S768I/V769L = molecular target: T10, EGFR S768I/V769L (Homo sapiens, UniProt P00533, S768I/V769L)
T10 construct: host or cells: Ba/F3
Procedure: as §1, §2, §3

EGFR E709K G719S = molecular target: T11, EGFR E709K G719S (Homo sapiens, UniProt P00533, E709K/G719S)
T11 construct: expressed in transfected cells; host or cells: Ba/F3
Procedure: as §1, §2, §3

EGFR L718V = molecular target: T12, EGFR L718V (Homo sapiens, UniProt P00533, L718V)
T12 construct: expressed in transfected cells; host or cells: Ba/F3
Procedure: as §1, §2, §3

EGFR L858R = molecular target: T13, EGFR L858R (Homo sapiens, UniProt P00533, L858R); conditions: Classical-Like, 72 hours
T13 construct: expressed in transfected cells; host or cells: Ba/F3 cells, retroviral pBabe-Puro vector

EGFR L858R/T790M = molecular target: T14, EGFR L858R/T790M (Homo sapiens, UniProt P00533, L858R/T790M); conditions: T790M-like-3S, 72 hours
T14 construct: expressed in transfected cells; host or cells: Ba/F3
Procedure: as §8, §2, §3

EGFR L858R L718Q = molecular target: T15, EGFR L858R L718Q (Homo sapiens, UniProt P00533, L718Q/L858R)
T15 construct: host or cells: Ba/F3

EGFR S768I = molecular target: T16, EGFR S768I (Homo sapiens, UniProt P00533, S768I)
T16 construct: expressed in transfected cells; host or cells: Ba/F3

EGFR G724S T790M = molecular target: T17, EGFR G724S T790M (Homo sapiens, UniProt P00533, G724S/T790M); conditions: T790M-like-3R, 72 hours
T17 construct: expressed in transfected cells; host or cells: Ba/F3

EGFR S768I V774M = molecular target: T18, EGFR S768I V774M (Homo sapiens, UniProt P00533, S768I/V774M)
T18 construct: host or cells: Ba/F3
Procedure: as §1, §2, §3

EGFR S811F = molecular target: T19, EGFR S811F (Homo sapiens, UniProt P00533, S811F); conditions: Classical-Like, 72 hours
T19 construct: expressed in transfected cells; host or cells: Ba/F3 cells, retroviral pBabe-Puro vector (vector made by GeneScript from EGFR WT)

EGFR Ex19del/T790M/L792H = molecular target: T20, EGFR Ex19del/T790M/L792H (Homo sapiens, UniProt P00533, DEL746-750/L792H/T790M); conditions: T790M-like-3R, 72 hours
T20 construct: expressed in transfected cells; host or cells: Ba/F3
Procedure: Data represent the ratio of the IC50 value for a given TKI for cells with a T790M-like-3R EGFR mutation to the IC50 value for cells with wildtype EGFR.
as §2
After 48-72 hours of transduction, 2 μg/ml puromycin (Invitrogen) was added to Ba/F3 cell lines in complete RPMI. To select for EGFR positive cell lines, cells were stained with PE-EGFR (Biolegend) and sorted by FACS. After sorting, EGFR positive cells were maintained in RPMI containing 10% FBS, 1% penicillin/streptomycin, and 1 ng/ml EGF to support cell viability. […] Shortly, cells were plated in 384-well plates (Greiner Bio-One) at 2000-3000 cells per well in technical triplicate. Seven different concentrations of TKIs or DMSO vehicle were added to reach a final volume of 40 μL per well. After 72 hours, 11 μL of Cell Titer Glo (Promega) was added to each well. Plates were incubated for a minimum of 10 minutes, and bioluminescence was determined using a FLUOstar OPTIMA plate reader (BMG LABTECH). Raw bioluminescence values were normalized to DMSO control treated cells, and values were plotted in GraphPad Prism. […] Drug screens were performed in technical triplicate on each plate and either duplicate or triplicate biological replicates. […] Statistical differences between groups were determined by ANOVA as described in the figure legends.

EGFR L718Q = molecular target: T21, EGFR L718Q (Homo sapiens, UniProt P00533, L718Q)
T21 construct: expressed in transfected cells; host or cells: Ba/F3

EGFR Ex19del T790M L718V = molecular target: T22, EGFR Ex19del T790M L718V (Homo sapiens, UniProt P00533, DEL746-750/L718V/T790M); conditions: T790M-like-3S, 72 hours
T22 construct: expressed in transfected cells; host or cells: Ba/F3
Procedure: as §8, §2, §3

EGFR R776H = molecular target: T23, EGFR R776H (Homo sapiens, UniProt P00533, R776H)
T23 construct: host or cells: Ba/F3
Procedure: as §1, §2, §3

EGFR G719A/R776C = molecular target: T24, EGFR G719A/R776C (Homo sapiens, UniProt P00533, G719A/R776C)
T24 construct: expressed in transfected cells; host or cells: Ba/F3
Procedure: as §1, §2, §3

EGFR L858R/C797S = molecular target: T25, EGFR L858R/C797S (Homo sapiens, UniProt P00533, C797S/L858R)
T25 construct: expressed in transfected cells; host or cells: Ba/F3

EGFR Ex19del/T790M/G724S = molecular target: T26, EGFR Ex19del/T790M/G724S (Homo sapiens, UniProt P00533, DEL746-750/G724S/T790M); conditions: T790M-like-3S, 72 hours
T26 construct: expressed in transfected cells; host or cells: Ba/F3
Procedure: as §8, §2, §3

EGFR L858R/L718V = molecular target: T27, EGFR L858R/L718V (Homo sapiens, UniProt P00533, L718V/L858R)
T27 construct: host or cells: Ba/F3
Procedure: as §1, §2, §3

SMILES	ratio of IC50 for cells with mutant EGFR to IC50 for cells with wildtype EGFR (Mut/WT) (EGFR N771dupN)	ratio of IC50 for cells with mutant EGFR to IC50 for cells with wildtype EGFR (Mut/WT) (EGFR K754E)	ratio of IC50 for cells with mutant EGFR to IC50 for cells with wildtype EGFR (Mut/WT) [1]	ratio of IC50 for cells with mutant EGFR to IC50 for cells with wildtype EGFR (Mut/WT) (EGFR S768I/T790M)	ratio of IC50 for cells with mutant EGFR to IC50 for cells with wildtype EGFR (Mut/WT) (EGFR D770insNPG)	ratio of IC50 for cells with mutant EGFR to IC50 for cells with wildtype EGFR (Mut/WT) (EGFR L858R T790M L792H)	ratio of IC50 for cells with mutant EGFR to IC50 for cells with wildtype EGFR (Mut/WT) (EGFR L858R/V834L)	ratio of IC50 for cells with mutant EGFR to IC50 for cells with wildtype EGFR (Mut/WT) (EGFR L858R)	ratio of IC50 for cells with mutant EGFR to IC50 for cells with wildtype EGFR (Mut/WT) (EGFR L858R/T790M)	ratio of IC50 for cells with mutant EGFR to IC50 for cells with wildtype EGFR (Mut/WT) (EGFR G724S T790M)	ratio of IC50 for cells with mutant EGFR to IC50 for cells with wildtype EGFR (Mut/WT) (EGFR S811F)	ratio of IC50 for cells with mutant EGFR to IC50 for cells with wildtype EGFR (Mut/WT) (EGFR Ex19del/T790M/L792H)	ratio of IC50 for cells with mutant EGFR to IC50 for cells with wildtype EGFR (Mut/WT) (EGFR Ex19del T790M L718V)	ratio of IC50 for cells with mutant EGFR to IC50 for cells with wildtype EGFR (Mut/WT) (EGFR Ex19del/T790M/G724S)	other results
COc1cc2ncnc(Nc3ccc(F)c(Cl)c3)c2cc1NC(=O)/C=C/CN1CCCCC1 [Dacomitinib]	6.261	0.03231	5.465	1.282	5.404	8.291	0.009314	0.002159	10	12.05	0.1673	48.51	89.62	9.95	ratio of IC50 for cells with mutant EGFR to IC50 for cells with wildtype EGFR (Mut/WT) (EGFR G724S; PACC, G724S, Ba/F3, 72 hours): 0.2379; ratio of IC50 for cells with mutant EGFR to IC50 for cells with wildtype EGFR (Mut/WT) (EGFR Ex19del/C797S; PACC, Ex19del/C797S, Ba/F3, 72 hours): 0.01762; ratio of IC50 for cells with mutant EGFR to IC50 for cells with wildtype EGFR (Mut/WT) (EGFR S768I/V769L; PACC, S768I/V769L, Ba/F3, 72 hours): 0.2085; ratio of IC50 for cells with mutant EGFR to IC50 for cells with wildtype EGFR (Mut/WT) (EGFR E709K G719S; PACC, E709K G719S, Ba/F3, 72 hours): 0.001358; ratio of IC50 for cells with mutant EGFR to IC50 for cells with wildtype EGFR (Mut/WT) (EGFR L718V; PACC, L718V, Ba/F3, 72 hours): 0.1103; ratio of IC50 for cells with mutant EGFR to IC50 for cells with wildtype EGFR (Mut/WT) (EGFR L858R L718Q; PACC, L858R L718Q, Ba/F3, 72 hours): 0.051; ratio of IC50 for cells with mutant EGFR to IC50 for cells with wildtype EGFR (Mut/WT) (EGFR S768I; PACC, S768I, Ba/F3, 72 hours): 17.66; ratio of IC50 for cells with mutant EGFR to IC50 for cells with wildtype EGFR (Mut/WT) (EGFR S768I V774M; PACC, S768I V774M, Ba/F3, 72 hours): 0.1407; ratio of IC50 for cells with mutant EGFR to IC50 for cells with wildtype EGFR (Mut/WT) (EGFR L718Q; PACC, L718Q, Ba/F3, 72 hours): 0.3828; ratio of IC50 for cells with mutant EGFR to IC50 for cells with wildtype EGFR (Mut/WT) (EGFR R776H; PACC, R776H, Ba/F3, 72 hours): 0.001367; ratio of IC50 for cells with mutant EGFR to IC50 for cells with wildtype EGFR (Mut/WT) (EGFR G719A/R776C; PACC, G719A/R776C, Ba/F3, 72 hours): 0.002518; ratio of IC50 for cells with mutant EGFR to IC50 for cells with wildtype EGFR (Mut/WT) (EGFR L858R/C797S; PACC, L858R/C797S, Ba/F3, 72 hours): 0.04539; ratio of IC50 for cells with mutant EGFR to IC50 for cells with wildtype EGFR (Mut/WT) (EGFR L858R/L718V; PACC, L858R/L718V, Ba/F3, 72 hours): 0.001529
Cc1cc(C(=O)Nc2nc3cccc(Cl)c3n2[C@@H]2CCCCN(C(=O)/C=C/CN(C)C)C2)ccn1 [Nazartinib]	0.371	0.04749	0.001195	0.0197	0.529	0.02884	0.01123	0.017	0.01957	0.1867	0.00115	4.292	0.2594	0.06117	ratio of the IC50 value for cells with a PACC EGFR mutation to the IC50 value for cells with wildtype EGFR (EGFR G724S; Ba/F3 cells, EGFR G724S (PACC), Mut/WT): 0.869; ratio of the IC50 value for cells with a PACC EGFR mutation to the IC50 value for cells with wildtype EGFR (EGFR Ex19del/C797S; Ba/F3 cells, EGFR Ex19del/C797S (PACC), Mut/WT): 3.067; ratio of the IC50 value for cells with a PACC EGFR mutation to the IC50 value for cells with wildtype EGFR (EGFR S768I/V769L; Ba/F3 cells, EGFR S768I/V769L (PACC), Mut/WT): 0.2253; ratio of the IC50 value for cells with a PACC EGFR mutation to the IC50 value for cells with wildtype EGFR (EGFR E709K G719S; Ba/F3 cells, EGFR E709K G719S (PACC), Mut/WT): 0.4195; ratio of the IC50 value for cells with a PACC EGFR mutation to the IC50 value for cells with wildtype EGFR (EGFR L718V; Ba/F3 cells, EGFR L718V (PACC), Mut/WT): 1.157; ratio of the IC50 value for cells with a PACC EGFR mutation to the IC50 value for cells with wildtype EGFR (EGFR L858R L718Q; Ba/F3 cells, EGFR L858R L718Q (PACC), Mut/WT): 0.6234; ratio of the IC50 value for cells with a PACC EGFR mutation to the IC50 value for cells with wildtype EGFR (EGFR S768I; Ba/F3 cells, EGFR S768I (PACC), Mut/WT): 0.5273; ratio of the IC50 value for cells with a PACC EGFR mutation to the IC50 value for cells with wildtype EGFR (EGFR S768I V774M; Ba/F3 cells, EGFR S768I V774M (PACC), Mut/WT): 0.09563; ratio of the IC50 value for cells with a PACC EGFR mutation to the IC50 value for cells with wildtype EGFR (EGFR L718Q; Ba/F3 cells, EGFR L718Q (PACC), Mut/WT): 1.245; ratio of the IC50 value for cells with a PACC EGFR mutation to the IC50 value for cells with wildtype EGFR (EGFR R776H; Ba/F3 cells, EGFR R776H (PACC), Mut/WT): 0.03601; ratio of the IC50 value for cells with a PACC EGFR mutation to the IC50 value for cells with wildtype EGFR (EGFR G719A/R776C; Ba/F3 cells, EGFR G719A/R776C (PACC), Mut/WT): 0.05772; ratio of the IC50 value for cells with a PACC EGFR mutation to the IC50 value for cells with wildtype EGFR (EGFR L858R/C797S; Ba/F3 cells, EGFR L858R/C797S (PACC), Mut/WT): 3.46; ratio of the IC50 value for cells with a PACC EGFR mutation to the IC50 value for cells with wildtype EGFR (EGFR L858R/L718V; Ba/F3 cells, EGFR L858R/L718V (PACC), Mut/WT): 1.03
